Here are results for 18 compounds from patent US20240025884A1 (Dong-A ST Co., Ltd., priority 2022, published 2024).

Molecules are shown by their SMILES. pIC50: −log10 of the molar value.

The experiment deals with GCN2 (Homo sapiens (Human), UniProt Q9P2K8). Nature of the experiment: GCN2 Biochemical Assay (TR-FRET, GFP-eIF2S1 substrate phosphorylation). Particulars: read-out: IC50 (GCN2 Inhibitory Activity). The procedure, abridged: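 TR-FRET readout (Ex 340, Em 490/520 nm) after 2–3 h with Tb-labelled phospho-eIF2S1 antibody in stop mix, following a 70 min room-temperature kinase step. Reaction: in-house GCN2, GFP-eIF2S1, ATP, tRNA in Tris pH 7.5 (2× stocks 1.6 nM, 50 nM, 0.2 mM); compounds tested at 10 concentrations, with a phospho-substrate artifact counter-plate.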
Sequence of GCN2 (Q9P2K8 whole entry): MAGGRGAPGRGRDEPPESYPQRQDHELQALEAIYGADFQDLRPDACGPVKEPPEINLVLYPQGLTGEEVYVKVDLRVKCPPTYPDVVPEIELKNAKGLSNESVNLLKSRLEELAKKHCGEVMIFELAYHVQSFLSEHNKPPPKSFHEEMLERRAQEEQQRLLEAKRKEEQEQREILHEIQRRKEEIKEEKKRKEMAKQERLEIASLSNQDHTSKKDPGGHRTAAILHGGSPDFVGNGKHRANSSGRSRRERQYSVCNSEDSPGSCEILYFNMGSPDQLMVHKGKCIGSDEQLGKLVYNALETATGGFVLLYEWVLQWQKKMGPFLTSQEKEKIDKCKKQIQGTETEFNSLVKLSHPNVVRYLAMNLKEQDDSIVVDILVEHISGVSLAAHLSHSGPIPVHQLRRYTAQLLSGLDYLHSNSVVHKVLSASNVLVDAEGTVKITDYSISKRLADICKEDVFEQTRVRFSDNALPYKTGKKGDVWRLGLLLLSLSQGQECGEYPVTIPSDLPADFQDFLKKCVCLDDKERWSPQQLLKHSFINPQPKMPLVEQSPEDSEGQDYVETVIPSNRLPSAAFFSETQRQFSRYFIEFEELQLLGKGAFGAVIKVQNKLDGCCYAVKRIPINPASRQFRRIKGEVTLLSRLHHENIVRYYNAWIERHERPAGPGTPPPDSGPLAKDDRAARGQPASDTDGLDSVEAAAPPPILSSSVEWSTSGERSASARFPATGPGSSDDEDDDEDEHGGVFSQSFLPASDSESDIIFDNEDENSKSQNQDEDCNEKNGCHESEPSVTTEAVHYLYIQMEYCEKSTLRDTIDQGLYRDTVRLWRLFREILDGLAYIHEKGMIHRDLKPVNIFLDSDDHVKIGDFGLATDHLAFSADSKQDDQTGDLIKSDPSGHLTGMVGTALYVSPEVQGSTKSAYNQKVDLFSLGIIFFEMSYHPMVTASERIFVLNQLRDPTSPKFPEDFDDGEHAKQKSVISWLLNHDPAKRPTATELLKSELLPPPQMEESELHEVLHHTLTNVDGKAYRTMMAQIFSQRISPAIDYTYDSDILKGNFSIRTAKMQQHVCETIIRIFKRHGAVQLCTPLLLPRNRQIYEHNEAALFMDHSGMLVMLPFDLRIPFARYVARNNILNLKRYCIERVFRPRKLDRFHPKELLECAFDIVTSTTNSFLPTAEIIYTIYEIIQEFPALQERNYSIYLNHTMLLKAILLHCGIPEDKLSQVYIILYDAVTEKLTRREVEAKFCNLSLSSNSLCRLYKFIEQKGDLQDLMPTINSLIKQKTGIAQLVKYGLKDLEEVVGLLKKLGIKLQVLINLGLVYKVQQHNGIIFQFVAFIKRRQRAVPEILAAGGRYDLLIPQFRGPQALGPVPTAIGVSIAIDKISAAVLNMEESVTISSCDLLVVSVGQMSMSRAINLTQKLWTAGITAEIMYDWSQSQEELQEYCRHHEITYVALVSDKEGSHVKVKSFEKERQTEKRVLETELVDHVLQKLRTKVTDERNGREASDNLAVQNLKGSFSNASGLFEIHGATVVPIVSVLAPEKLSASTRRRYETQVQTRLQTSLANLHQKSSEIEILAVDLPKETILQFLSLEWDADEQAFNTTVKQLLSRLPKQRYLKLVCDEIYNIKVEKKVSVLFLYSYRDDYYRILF
On to `Cc1cnc(Nc2cc(C)n(C)n2)nc1-c1c[nH]c2c(NC(=O)CN3CCC(O)C3)cccc12` (stereo not drawn) [Example 70, N-(3-(2-((1,5-dimethyl-1H-pyrazol-3-yl)amino)-5-methylpyrimidin-4-yl)-1H-indol-7-yl)-2-(3-hydroxypyrrolidin-1-yl)acetamide], for which the pIC50 was 7.00 to 8.00.
In the case of `Cc1cnc(Nc2cc(C)n(C)n2)nc1-c1c[nH]c2c(NC(=O)CN3CC[C@H](Oc4cc(C(N)=O)on4)C3)cccc12` [Example 122, (S)-3-((1-(2-((3-(2-((1,5-dimethyl-1H-pyrazol-3-yl)amino)-5-methylpyrimidin-4-yl)-1H-indol-7-yl)amino)-2-oxoethyl)pyrrolidin-3-yl)oxy)isoxazole-5-carboxamide], the pIC50 is 7.00 to 8.00.
In the case of `Cc1cnc(Nc2cc(C)n(C)n2)nc1-c1c[nH]c2c(NC(=O)CN3CC(Oc4cccnc4)C3)cccc12` [Example 30, N-(3-(2-((1,5-dimethyl-1H-pyrazol-3-yl)amino)-5-methylpyrimidin-4-yl)-1H-indol-7-yl)-2-(3-(pyridin-3-yloxy)azetidin-1-yl)acetamide], the pIC50 was 6.00 to 7.00.
The result for `Cc1cnc(Nc2cc(C)n(C)n2)nc1-c1c[nH]c2c(N3Cc4c(NS(=O)(=O)c5ccccc5)cccc4C3=O)cccc12` [Example 341, N-(2-(3-(2-((1,5-dimethyl-1H-pyrazol-3-yl)amino)-5-methylpyrimidin-4-yl)-1H-indol-7-yl)-1-oxoisoindolin-4-yl)benzenesulfonamide] reads greater than 8.00.
Turning to `Cc1cnc(Nc2cc(C)n(C)n2)nc1-c1c[nH]c2c(NC(=O)CN3CC[C@H](Oc4ncc(F)c(N(C)C)n4)C3)cccc12` [Example 181, (S)-N-(3-(2-((1,5-dimethyl-1H-pyrazol-3-yl)amino)-5-methylpyrimidin-4-yl)-1H-indol-7-yl)-2-(3-((4-(dimethylamino)-5-fluoropyrimidin-2-yl)oxy)pyrrolidin-1-yl)acetamide], the negative-log IC50 (pIC50) is greater than 8.00.
Take `Cc1cnc(Nc2cc(C)n(C)n2)nc1-c1c[nH]c2c(N3Cc4c(cccc4-c4cnn(C)c4)C3=O)cccc12` [Example 389, 2-(3-(2-((1,5-dimethyl-1H-pyrazol-3-yl)amino)-5-methylpyrimidin-4-yl)-1H-indol-7-yl)-4-(i-methyl-1H-pyrazol-4-yl)isoindolin-1-one]: the pIC50 is greater than 8.00.
Regarding `Cc1cnc(Nc2cc(C)n(C)n2)nc1-c1c[nH]c2c(NC(=O)CN3CC[C@H](Oc4cc(NCCO)ncn4)C3)cccc12` [Example 145, (S)-N-(3-(2-((1,5-dimethyl-1H-pyrazol-3-yl)amino)-5-methylpyrimidin-4-yl)-1H-indol-7-yl)-2-(3-((6-((2-hydroxyethyl)amino)pyrimidin-4-yl)oxy)pyrrolidin-1-yl)acetamide], the pIC50 is greater than 8.00.
The result for `COC(=O)c1sccc1O[C@H]1CCN(CC(=O)Nc2cccc3c(-c4nc(Nc5cc(C)n(C)n5)ncc4C)c[nH]c23)C1` [Example 107, methyl (S)-3-((1-(2-((3-(2-((1,5-dimethyl-1H-pyrazol-3-yl)amino)-5-methylpyrimidin-4-yl)-1H-indol-7-yl)amino)-2-oxoethyl)pyrrolidin-3-yl)oxy)thiophene-2-carboxylate] reads greater than 8.00; that for `Cc1cnc(Nc2cc(C)n(C)n2)nc1-c1c[nH]c2c(NC(=O)CN3CC[C@H](Oc4nccc(NC5CC5)n4)C3)cccc12` [Example 175, (S)-2-(3-((4-(cyclopropylamino)pyrimidin-2-yl)oxy)pyrrolidin-1-yl)-N-(3-(2-((1,5-dimethyl-1H-pyrazol-3-yl)amino)-5-methylpyrimidin-4-yl)-1H-indol-7-yl)acetamide], greater than 8.00; that for `COc1cnc(Nc2cc(C)n(C)n2)nc1-c1c[nH]c2c(NC(=O)CN3CC[C@H](Oc4cnnc(NC5CC5)n4)C3)cccc12` [Example 14, (S)-2-(3-((3-(cyclopropylamino)-1,2,4-triazin-5-yl)oxy)pyrrolidin-1-yl)-N-(3-(2-((1,5-dimethyl-1H-pyrazol-3-yl)amino)-5-methoxypyrimidin-4-yl)-1H-indol-7-yl)acetamide], greater than 8.00.
Consider `Cc1cnc(Nc2cc(C)n(C)n2)nc1-c1c[nH]c2c(NC(=O)CN3C[C@@H](Oc4ccnc(NC5CC5)n4)C[C@H]3C(N)=O)cccc12` [Example 58, (2S,4S)-4-((2-(cyclopropylamino)pyrimidin-4-yl)oxy)-1-(2-((3-(2-((1,5-dimethyl-1H-pyrazol-3-yl)amino)-5-methylpyrimidin-4-yl)-1H-indol-7-yl)amino)-2-oxoethyl)pyrrolidine-2-carboxamide], for which the negative-log IC50 (pIC50) was greater than 8.00.
As for `Cc1cnc(Nc2cc(C)n(C)n2)nc1-c1c[nH]c2c(NC(=O)CN3CC[C@H](Oc4ncc(F)c(N(C)c5ccccc5)n4)C3)cccc12` [Example 184, (S)-N-(3-(2-((1,5-dimethyl-1H-pyrazol-3-yl)amino)-5-methylpyrimidin-4-yl)-1H-indol-7-yl)-2-(3-((5-fluoro-4-(methyl(phenyl)amino)pyrimidin-2-yl)oxy)pyrrolidin-1-yl)acetamide], the pIC50 was 7.00 to 8.00.
As to `COC(=O)C1CN(CC(=O)Nc2cccc3c(-c4nc(Nc5cc(C)n(C)n5)ncc4C)c[nH]c23)C1` [Example 31, methyl 1-(2-((3-(2-((1,5-dimethyl-1H-pyrazol-3-yl)amino)-5-methylpyrimidin-4-yl)-1H-indol-7-yl)amino)-2-oxoethyl)azetidine-3-carboxylate], the pIC50 is 7.00 to 8.00.
As for `Cc1cnc(Nc2cc(C)n(C)n2)nc1-c1c[nH]c2c(NC(=O)CN3CC[C@H](Oc4ccccn4)C3)cccc12` [Example 73, (S)-N-(3-(2-((1,5-dimethyl-1H-pyrazol-3-yl)amino)-5-methylpyrimidin-4-yl)-1H-indol-7-yl)-2-(3-(pyridin-2-yloxy)pyrrolidin-1-yl)acetamide], the pIC50 was 7.00 to 8.00.
`Cc1cnc(Nc2cc(C)n(C)n2)nc1-c1c[nH]c2c(NC(=O)CN3CC[C@@H](C(=O)N4CCOCC4)C3)cccc12` [Example 67, (R)-N-(3-(2-((1,5-dimethyl-1H-pyrazol-3-yl)amino)-5-methylpyrimidin-4-yl)-1H-indol-7-yl)-2-(3-(morpholine-4-carbonyl)pyrrolidin-1-yl)acetamide]: the pIC50 was 6.00 to 7.00.
For the compound `Cc1cnc(Nc2cc(C)n(C)n2)nc1-c1c[nH]c2c(NC(=O)CN3CC[C@H](Oc4ccnc(NC5CC5)n4)C3)c(F)ccc12` [Example 1, (S)-2-(3-((2-(cyclopropylamino)pyrimidin-4-yl)oxy)pyrrolidin-1-yl)-N-(3-(2-((1,5-dimethyl-1H-pyrazol-3-yl)amino)-5-methylpyrimidin-4-yl)-6-fluoro-1H-indol-7-yl)acetamide], the negative logarithm of the IC50 (pIC50) was greater than 8.00.
For the compound `Cc1cnc(Nc2cc(C)n(C)n2)nc1-c1c[nH]c2c(NC(=O)CN3CC(C(=O)O)C3)cccc12` [Example 32, 1-(2-((3-(2-((1,5-dimethyl-1H-pyrazol-3-yl)amino)-5-methylpyrimidin-4-yl)-1H-indol-7-yl)amino)-2-oxoethyl)azetidine-3-carboxylic acid], the negative logarithm of the IC50 (pIC50) was 7.00 to 8.00.
The result for `Cc1cnc(Nc2cc(C)n(C)n2)nc1-c1c[nH]c2c(NC(=O)CN3CC[C@H](Oc4ccc(Cl)cc4)C3)cccc12` [Example 82, (S)-2-(3-(4-chlorophenoxy)pyrrolidin-1-yl)-N-(3-(2-((1,5-dimethyl-1H-pyrazol-3-yl)amino)-5-methylpyrimidin-4-yl)-1H-indol-7-yl)acetamide] reads 6.00 to 7.00.

As usually defined, the pIC50 is the negative decadic logarithm of the IC50, by convention in mol/L.
